The term pIC50 denotes the negative decadic logarithm of the IC50, by convention in mol/L. The low end stands for a high IC50, the high end for a low IC50. For orientation: pEC50 means the negative decadic logarithm of the EC50, by convention in mol/L.

We go through three compounds from patent US12370193B2, “Method of inhibiting TREM-1” (UNIVERSITY OF FLORIDA RESEARCH FOUNDATION, INCORPORATED, priority 2019, dated 2025).

pEC50, pIC50: −log10 of the molar value.

For data set [1], the system named is collagen-induced arthritis. The experiment in a line: Collagen-induced arthritis (CIA) mouse model. To be noted: for enlargement of the liver: CIA mice, 20 mg/kg.
Experimental: Clinical score was monitored every day after boosting during 18 days. […] The dosage of all compounds was identical in each group.
Briefly, DBA/1J mice were injected with chicken type II collagen on day 1 and then each animal received a boost injection of collagen on Day 21. Compound treatment, initiated on day 3-post boost injection, was administered intraperitoneally at 20 mg/kg twice-a-day for a total of 16 days. […] Mice: All mice were maintained in a specific pathogen-free environment in accordance with institutional protocol. […] Female DBA/1J mice were purchased from Taconic. CIA was induced in 8 weeks as previously described^40.
For a further data set, the target named is T1, RORγ (Homo sapiens, UniProt P51449).
T1 sequence (P51449 269-518 limits assumed): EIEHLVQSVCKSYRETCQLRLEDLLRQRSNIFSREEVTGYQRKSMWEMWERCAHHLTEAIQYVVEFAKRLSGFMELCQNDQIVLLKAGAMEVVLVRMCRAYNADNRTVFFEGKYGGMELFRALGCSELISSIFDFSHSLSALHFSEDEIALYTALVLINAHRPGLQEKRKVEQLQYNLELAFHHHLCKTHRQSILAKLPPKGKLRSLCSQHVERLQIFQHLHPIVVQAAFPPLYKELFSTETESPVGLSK
The experiment in a line: Gal4-RORγ co-transfection promoter-reporter assay. The following applies: cell-based promoter-reporter Gal4 assay format, HEK293T cells. On the technique in general: In a reporter assay the amount or activity of a reporter protein is the signal.

The test system of a further data set is RORα. The experiment in a line: Gal4-RORα co-transfection promoter-reporter assay. Format: cell-based. The following applies: Gal4 assay format. The protocol: (§1) Reporter gene assays: Twenty-four hours before transfection, HEK293T cells were plated in 96-well plates at a density of 15×10^3 cells per well. UAS:luciferase reporter and Ga14-RORa, Gal4-RORb, Gal4-RORγ, Gal4-LXRα, or Gal4 PPARγ DNA co-transfections were performed using X-tremeGENE 9 (Roche). Twenty-four hours after transfection, the cells were treated with vehicle or compound. Twenty-four hours after treatment, the luciferase activity was measured using the Dual-Glo luciferase assay system (Promega). Results were analyzed using GraphPad Prism software.

The test system of a further data set is RORβ. The experiment in a line: Gal4-RORβ co-transfection promoter-reporter assay. The following applies: Gal4 assay format. The data set is classed as cell-based. On the procedure: as §1
The target in another data set is T2, LXRα (Homo sapiens, UniProt Q13133).
T2 sequence (Q13133 209-447 limits assumed): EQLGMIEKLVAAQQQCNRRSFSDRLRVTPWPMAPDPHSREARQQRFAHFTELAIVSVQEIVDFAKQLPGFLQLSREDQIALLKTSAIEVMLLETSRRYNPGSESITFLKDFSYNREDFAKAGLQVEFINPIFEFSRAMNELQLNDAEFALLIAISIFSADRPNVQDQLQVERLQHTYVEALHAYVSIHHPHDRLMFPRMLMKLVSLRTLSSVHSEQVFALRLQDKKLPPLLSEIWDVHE
The experiment in a line: Gal4-LXRα co-transfection promoter-reporter assay. The data set is classed as cell-based. To be noted: HEK293T cells, read-out: LXR agonist activity EC50.
Source text: FIGS. 1A to 1E: Pan modulator with poly-pharmacology. […] FIG. 1D is a graph showing PPARγ target genes (aP2 and CD36) expression in OP9 cells with and without MDI (IBMX, dexamethasone, insulin) treatment. […] SR1903 is represented as orange sticks while PPARγ, RORγ, and LXRβ are depicted as blue ribbons respectively. Specific residues driving the interaction labelled and shown as sticks as well. […] FIG. 1F are graphs showing RORγ target genes (IL17A and IL17F) expression in EL4 cells.
as §1

For a further data set, the system named is EL4 cells. The experiment in a line: RORγ target gene expression in PMA/ionomycin stimulated EL4 cells. Format: cell-based. The following applies: PMA and ionomycin, compound at 10 μM. The source says: FIG. 1D is a graph showing PPARγ target genes (aP2 and CD36) expression in OP9 cells with and without MDI (IBMX, dexamethasone, insulin) treatment. […] Specific residues driving the interaction labelled and shown as sticks as well. […] Quantitative RT-PCR: Total RNA was extracted from EL4 or RAW264.7 cells using RNeasy Plus Micro Kit (Qiagen) and the RNA was reverse transcribed using the ABI reverse transcription kit (Applied Biosystems/Thermo Fisher Scientific, Waltham MA). Quantitative PCR was performed with a 7900HT Fast Real Time PCR System (Applied Biosystems) using SYBR green (Roche).

The subject of data set [2] is TREM-1. The experiment in a line: TREM-1 gene expression in LPS-stimulated RAW264.7 cells (RNA sequencing, qPCR). Format: cell-based, mouse. To be noted: 26 hr exposure. On the procedure: (§2) FIG. 2B are graphs showing TREM-1 gene expression by q-PCR. […] All experiments were performed with 3 biological replicates and the median value of TREM-1 fluorescence was represented by the graph on the bottom.
Quantitative RT-PCR: Total RNA was extracted from EL4 or RAW264.7 cells using RNeasy Plus Micro Kit (Qiagen) and the RNA was reverse transcribed using the ABI reverse transcription kit (Applied Biosystems/Thermo Fisher Scientific, Waltham MA). Quantitative PCR was performed with a 7900HT Fast Real Time PCR System (Applied Biosystems) using SYBR green (Roche).
mRNA sequencing analysis: RAW264.7 cells RNA extraction protocol for RNA seq was derived from Qiagen Kit-74106. Total RNA was quantified using the Qubit 2.0 Fluorometer (Invitrogen, Carlsbad, CA) and run on the Agilent 2100 Bioanalyzer (Agilent Technologies, Santa Clara, CA) for quality assessment. RNA samples of good quality with RNA Integrity Number (RIN)>8.0 were further processed. A RNase-free working environment was maintained and RNase-free tips, Eppendorf tubes and plates were utilized for the subsequent steps. Messenger RNA was selectively isolated from total RNA (300 ng input) using poly-T oligos attached to magnetic beads and converted to sequence-ready libraries using the TruSeq stranded mRNA sample prep protocol (Cat. #: RS-122-2101, Illumina, San Diego, CA). The final libraries were validated on the bioanalyzer DNA chips and qPCR quantified using primers that recognize the illumina adaptors. The libraries were then pooled at equimolar ratios, quantified using qPCR and loaded onto the NextSeq 500 flow cell at 1.8 pM final concentration. They were sequenced using the high-output, paired-end, 75-bp chemistry. Demultiplexed and quality filtered raw reads (fastq) generated from the NextSeq 500 were trimmed (adaptor sequences) using Flexbar 2.4 and aligned to the mouse reference database (mm9) using TopHat version 2.0.9 (Trapnell et al., 2009). HTseq-count version 0.6.1 was used to generate gene counts and differential gene expression analysis was performed using Deseq2 (Anders and Huber, 2010).
(In general: Real-time PCR tracks product formation cycle by cycle.)

In data set [3] the test system is TREM-1. The experiment in a line: TREM-1 surface expression by FACS in LPS-stimulated RAW264.7 cells. The data set is classed as cell-based, mouse. To be noted: 50 hr incubation. The protocol:
as §2
Flow cytometry and antibodies: For the analysis of macrophage activation, RAW264.7 cells (American Type Culture Collection) were pre-incubated with 5 μM 1903 for 18 h then stimulated with 1 μg/mL LPS (Escherichia coli 0127:B8, Sigma-Aldrich (St. Louis, MO)) for 6 h. RAW264.7 cells were stained with APC conjugated anti-TREM-1 antibody (eBioscience). Cell sorting was performed using LSRII (BD Bioscience).
A general note: In flow cytometry, cells or beads pass a laser one at a time.

In data set [4] the test system is collagen-induced arthritis. The following applies: Chang et al. (2014); cited from earlier work.
Another data set deals with TH17 cells. The following applies: Chang et al. study; cited from earlier work.

Regarding `O=S(=O)(c1ccccc1)N(CC(F)(F)F)c1ccc(C(O)(C(F)(F)F)C(F)(F)F)cc1` [T0901317, N-(2,2,2-trifluoroethyl)-N-[4-[2,2,2-trifluoro-1-hydroxy-1-(trifluoromethyl)ethyl]phenyl]-benzenesulfonamide, reference compound], in data set [1], the “enlargement of the liver” value is recorded as “negative effect on liver”.

At RORγ, `O=C(O)Cc1cccc(OCCCN(Cc2cccc(C(F)(F)F)c2Cl)CC(c2ccccc2)c2ccccc2)c1` [GW3965, reference compound] had a pIC50 of 4.37. For the same compound, the “activity on RORα” value in the data set with RORα is reported as “lack activity”. The “activity on RORβ” value in the data set on RORβ is “lack activity”. The pEC50 at LXRα was 6.81. Further, in the data set with EL4 cells, the IL17F expression result is reported as “lacked the ability to repress”. In the data set on TREM-1 [2], the “LPS induction of TREM-1 gene expression (qPCR)” value was “significantly repressed”. Besides, the “LPS-induced TREM1 cell surface expression” value in the data set on TREM-1 [3] is on record as “only modestly dampened”. In addition, the “enlargement of the liver” value in data set [1] was “did not cause enlargement of the liver”. Besides, the arthritis clinical score entry in data set [1] (Day 34, 20 mg/kg i.p. twice-a-day, vehicle 13.6±2.9) is given as “only very modest effects”.

On to `OC(c1ccc(-c2ccc(CN3CCN(Cc4ccncc4)CC3)cc2)c(F)c1)(C(F)(F)F)C(F)(F)F` [SR2211], for which, in [4], the “therapeutic effect in CIA mice” value is given as “robust therapeutic effect”. In addition, in the data set with TH17 cells, the “IL-17 and IL-23R expression” value is recorded as “reduced”; the TH17 cell differentiation entry is “inhibited”.
